This is an account of results in patent US20250041437A1, “HUMANIZED MUC1 ANTIBODY AND ANTIBODY DRUG CONJUGATE” (Sun Pharma Advanced Research Company Limited, priority 2023, published 2025).

Where a SMILES comes first, the peptide text is derived from it. [ ]: non-standard residue; d: D form. The star is where a group is joined. Dolaproine = CO[C@@H]([C@@H]1CCCN1)[C@@H](C)C(=O)O; Dil = CC[C@H](C)[C@H](NC)[C@@H](CC(=O)O)OC; X1 = C[C@@H](N*)[C@@H](O)c1ccccc1; NMeV = CN[C@H](C(=O)O)C(C)C

Series [1] concerns COLO-357 pancreatic carcinoma cells. Put plainly: Growth inhibition of human cancer cell lines, COLO-357. The note with it: read-out: MMAE IC50; COLO-357, free MMAE.
Series [2] can be described thus: Single dose pharmacokinetics, COLO357 tumor bearing mouse, IV. Type of series: in vivo. The method, then: The objective of this study was to evaluate serum, tumor and liver pharmacokinetics of TAB, CAB and uMMAE following 3 mg/kg single IV administration of M5LM4-ADC and pharmacokinetics of MMAE following 0.06 mg/kg single IV administration of MMAE alone in a COLO357 tumor bearing mouse model.
The blood samples were collected from the mouse at 0.083, 0.5, 1, 2, 4, 8, 24, 48, 72, 96, 168 and 336 hours post-dose (n=3 mice/time point; sparse sampling design) through retro-orbital plexuses and serum was immediately harvested. At 24, 48, 72, 96, 168 and 336 hour time-points, the tumor and liver were collected. Analysis of total antibody (TAB) and conjugated antibody (CAB) was done by a fit for purpose ELISA based method and analysis of free payload (MMAE) was done by a fit for purpose LC-MS/MS based method. Pharmacokinetic analysis was performed by the non-compartmental analysis tool of Phoenix WinNonlin® software.

In series [3] the test system is SKOV3 derived xenograft. The settings on record: mouse, in vivo.
The subject of series [4] is T47D breast carcinoma cells. Put plainly: Growth inhibition of human cancer cell lines, T47D. Type of series: cell-based. The settings on record: free MMAE.
In series [5] the test system is BxPC3 pancreatic carcinoma cells. Put plainly: Growth inhibition of human cancer cell lines, BxPC3. The settings on record: read-out: MMAE IC50; BxPC3, free MMAE.
In series [6] the test system is MCF7 derived xenograft. The settings on record: mouse, in vivo.
The mark [7] stands for this setting: MMAE, MMAE 0.06 mg/kg IV, liver.
Setting [8] is: MMAE, MMAE 0.06 mg/kg IV, serum.
The mark [9] stands for this setting: MMAE, MMAE 0.06 mg/kg IV, tumor.
Setting [10] is: single IV MMAE, COLO357 tumor bearing mice.

For the compound `CC[C@H](C)[C@@H]([C@@H](CC(=O)N1CCC[C@H]1[C@H](OC)[C@@H](C)C(=O)N[C@H](C)[C@@H](O)c1ccccc1)OC)N(C)C(=O)[C@@H](NC(=O)[C@@H](NC)C(C)C)C(C)C` [Free MMAE, monomethyl auristatin E, reference compound] (H-[NMeV]V[Dil][Dolaproine]-X1), in series [1], the IC50 (commonly the concentration at which inhibition is half-maximal) is 0.16 nM. In addition, in series [2] (setting [7]), the AUC0-336 amounted to 0.19 µM·h, the Cmax (usually the peak of the concentration-time curve) came out at 1.5 nM and the T1/2 amounted to 182 h. In series [2] (setting [8]), this compound had an AUC0-24 of 0.018 µM·h, an AUC0-336 of 0.021 µM·h, an AUCINF of 0.021 µM·h and a CL of 64 mL/min/kg. In addition, in series [2] (setting [8]), the Cmax turned out to be 8 nM; the T1/2 worked out at 5 h; the Tmax (in general, the time at which the peak concentration occurs) is 4.8 min; the volume of distribution (Vss) – broadly, a proportionality between amount in the body and measured concentration, not a real space – is listed as 34 L/kg. Moreover, in series [2] (setting [9]), the AUC0-336 was 1.391 µM·h, the “AUC ratio (Kp)” value is 66, the Cmax amounted to 11 nM and the T1/2 amounted to 154 h. Besides, in series [2] (setting [10]), the “tumor exposure higher than in serum” value was found to be 66 fold and the “tumor exposure higher than in the liver” value is 7 fold. In series [3], the mortality is reported as 3 of 8 and the “tumor growth inhibition (TGI)” value is reported as 106±10%. Further, it took 0.07 nM to reach half-maximal inhibition in series [4] (IC50). For the same compound, the IC50 in series [5] was 0.02 nM. The mortality in series [6] is 3 of 8.
